# What was measured:
# CHO cells = assay: Dual label cell function assay, intracellular calcium in CHO cells (Fluo-3 / Syto-17, on-chip); assay type: cell-based; conditions: ionomycin 0, 1 μM, 3 μM, 10 μM and 30 μM, FIGS. 11A-11F
# Method: (§1) Cell Culture—Cells (CHO or THP-1) were obtained from the ATCC. THP-1 cells were cultured in RPMI 1640 media containing 10% fetal bovine serum (FBS), sodium pyruvate (1 mM), L-glutamine (2 mM), Penicillin-G/Streptomycin (100 u/ml, 100 μ/ml), beta-mercaptoethanol (50 μM), HEPES buffer, pH 7.4 (10 mM). CHO cells were cultured in Ham's F12 media containing 10% FBS, L-glutamine (2 mM), and Penicillin-G/Streptomycin (100 u/ml/100 μg/ml). The cells were maintained by splitting every 3-4 days.
# (§2) Dye Loading of Cells—The cells were loaded with Fluo-3-AM dye (Molecular Probes) using a 4 μM solution of the dye in Hank's Balanced Salt Solution (HBSS) containing calcium and magnesium but lacking phenol red. Added to the HBSS were 1% FBS, 2.5 mM probenecid, 30 mM HEPES, pH 7.0, and 0.05% pluronic acid. The cells were incubated in the dye containing solution at approximately, 5-9×10^6 cells/5 ml for 50 minutes in a CO2 incubator at 37° C. […]
# (§3) The fluorescence of the cells was measured using two PMT's on a Nikon inverted microscope and fluorescein/texas red filter sets (Fluo-3: Ex. max=506, Em. max=526 & Syto-17: Ex. max=621, Em. max=634 nm) for two color analysis. Using the combination of Fluo-3 and Syto-17 dyes, there was no interference by fluorescence quenching of one dye's emission by the other dye. […] Syto-17 was therefore an indicator of cell density in the reading area. […]
# [1] = tested on: P2Y receptor on THP-1 cells; assay: Dual label cell function assay, calcium response of THP-1 cells to UTP (Fluo-3 / Syto-17, on-chip); assay type: cell-based
# Method: as §1, §2, §3
smiles,measurement,setting,value
C[C@H](CCC(=O)O)C[C@H](C)C[C@H](C)C(=O)/C=C(\O)[C@H](C)C[C@H](C)C/C=C/[C@@H](C)[C@@H](O)[C@@H](C)[C@@H](O)C[C@@H]1CC[C@@](C)([C@H]2CC[C@@](C)([C@@H](C)O)O2)O1 [ionomycin],slope of the best fit line for the scatter plots (ratio of calcium modulated fluorescence to cell number; measure of intracellular calcium concentration),CHO cells,increases with increasing ionomycin concentration
O=c1ccn([C@@H]2O[C@H](COP(=O)(O)OP(=O)(O)OP(=O)(O)O)[C@@H](O)[C@H]2O)c(=O)[nH]1 [UTP],time to peak of calcium response after sample introduction,"[1]; 10 μM UTP, FIG. 15",≤ 5 s
same,ratio of the Fluo-3 and Syto-17 fluorescence (the slope determined by linear regression),"[1]; 30 μM UTP versus no UTP, FIG. 13",changes with treatment with UTP
